Assay results as given in patent US20260001893A1, “SMALL MOLECULE MODULATORS OF STAT6” (Gilead Sciences, Inc., priority 2024, published 2026).

test system: Eotaxin-3 (CCL26) release in human whole blood stimulated with IL-4; assay: Human whole blood eotaxin-3 assay (IL-4 stimulated eotaxin-3 release); format: cell-based; conditions: Homo sapiens, 48 h, human whole blood stimulated with recombinant human IL-4, 48 h; given for test compounds with <80% Emax; geometric mean
In short: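 Lithium-heparin human whole blood was preincubated with compound (4-fold serial dilution, 0.5% DMSO final) for 2 h at 37° C, then stimulated with recombinant human IL-4 at […] final for 48 h. Eotaxin-3 (CCL26) in the supernatant was measured by MSD immunoassay.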

Row | SMILES | Emax [%]
1 | CN(C)C(=O)c1ccc(C2CCN(Cc3cc4c(-n5ccc6[nH]nc(C(F)(F)F)c6c5=O)ccnc4n3C)C(=O)C2)cc1 (single isomer, unassigned) [Example 1ab1] | 30 to 40

same assay, conditions: Homo sapiens, 48 h, human whole blood stimulated with recombinant human IL-4, 48 h; inhibition of eotaxin-3 release; given for test compounds with >80% Emax; geometric mean

Row | EC50 [µM] | SMILES
2 | 0.289 | CNc1ccn(-c2ccnc3c2cc(CN2CC[C@H](c4ccc(C(=O)N(C)C)cc4)[C@@H](F)C2)n3C)c(=O)c1 (single isomer, unassigned) [Example 1f3]

same assay, conditions: human whole blood stimulated with recombinant human IL-4, 48 h; given for test compounds with <80% Emax; geometric mean

Row | SMILES | Eotaxin-3 Emax (%)
3 | CN(C)C(=O)c1ccc(C2CCN(Cc3cc4c(-n5ccc6[nH]nc(C(F)(F)F)c6c5=O)ccnc4n3C)C(=O)C2)cc1 (single isomer, unassigned) [Example 1ab2] | 50-60%

biological target: T1, Human STAT6 (truncated, aa122-658, with N-terminal His-tag) (Homo sapiens, UniProt P42226); assay: Surface plasmon resonance (SPR) assay, binding to human STAT6; conditions: Biacore 8K, 25° C, immobilized human STAT6 on CM5 chip, multi-cycle kinetics; geometric mean
T1 construct: Human STAT6 (truncated, aa122-658, with N-terminal His-tag, expressed in insect cells); His-tag (N); made in house; host or cells: insect cells
T1 sequence (P42226 122-658): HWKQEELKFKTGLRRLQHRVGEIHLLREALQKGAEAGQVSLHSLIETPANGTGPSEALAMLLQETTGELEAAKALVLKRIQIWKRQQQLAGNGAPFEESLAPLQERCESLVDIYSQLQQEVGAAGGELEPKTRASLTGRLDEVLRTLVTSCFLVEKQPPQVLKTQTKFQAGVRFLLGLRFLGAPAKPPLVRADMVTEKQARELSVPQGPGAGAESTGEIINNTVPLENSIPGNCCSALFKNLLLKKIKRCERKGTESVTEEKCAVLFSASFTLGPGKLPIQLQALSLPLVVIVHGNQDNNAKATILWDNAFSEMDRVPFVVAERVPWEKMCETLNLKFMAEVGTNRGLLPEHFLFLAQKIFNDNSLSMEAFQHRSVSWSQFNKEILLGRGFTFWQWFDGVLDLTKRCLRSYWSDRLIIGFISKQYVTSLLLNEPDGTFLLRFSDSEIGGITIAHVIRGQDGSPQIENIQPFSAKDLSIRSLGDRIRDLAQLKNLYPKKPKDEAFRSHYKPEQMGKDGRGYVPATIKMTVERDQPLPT
Procedure: Surface Plasmon Resonance Assay
Biacore instruments from the 8K-series (Cytiva) were used, and measurements were performed at 25° C. Human STAT6 (truncated, aa122-658, with N-terminal His-tag, expressed in insect cells) was immobilized in the active flow cells on a CM5 chip using amine-coupling (default settings) at 10 μg/ml in 10 mM acetate buffer pH 5.5, at a contact time of 120-420 sec. and a flow rate of 10 μl/min. Reference flow cells were deactivated using blank immobilization. PBS-P+(Cytiva) supplemented with 2% DMSO was used as running buffer, and solvent correction was applied. Compounds were tested by multi-cycle kinetics injections using a contact time of 60 sec., dissociation time of up to 300 sec., and a flow rate of 30 μl/min.
Solvent-corrected, reference-subtracted and blank-corrected data was processed and binding isotherms were fitted according to a single report point from each sensorgram (Standard: Late binding (5 sec. before injection end); alternative: Earlier report point according to binding profile). Data fitting was done both with unfixed Rmax and with Rmax fixed to the theoretical value* assuming 1:1 binding to allow processing of data from both weak and strong binders as well as to evaluate binding stoichiometry.
Positive controls were run at the beginning, during, and at the end of the screen to evaluate surface activity.
*Equation for calculation of the theoretical Rmax(Theoretical Rmax=(MW Analyte/MW Ligand)×immobilization level).

Row | Kd [µM] | SMILES
4 | 0.061 | CN(C)C(=O)c1ccc(C2CCN(Cc3cc4c(-n5ccc6[nH]nc(C(F)(F)F)c6c5=O)ccnc4n3C)C(=O)C2)cc1 (single isomer, unassigned) [Example 1ab1]
5 | 0.0376 | CN(C)C(=O)c1ccc(C2CCN(Cc3cc4c(-n5ccc6[nH]nc(C(F)(F)F)c6c5=O)ccnc4n3C)C(=O)C2)cc1 (single isomer, unassigned) [Example 1ab2]
6 | 0.0325 | CNc1ccn(-c2ccnc3c2cc(CN2CC[C@H](c4ccc(C(=O)N(C)C)cc4)[C@@H](F)C2)n3C)c(=O)c1 (single isomer, unassigned) [Example 1f3]
7 | 0.112 | CN(C)C(=O)c1ccc(C2CCN(Cc3cc4c(-n5ccc(NC6CC6)cc5=O)ccnc4n3C)CC2)cc1 [Example 1d15, 4-[1-[[4-[4-(cyclo-Propylamino)-2-oxo-1-pyridyl]-1-methyl-pyrrolo[2,3-b]pyridin-2-yl]methyl]-4-piperidyl]-N,N-dimethyl-benzamide]
8 | 6.62 | CN(C)C(=O)c1ccc(C2CCN(Cc3cc4c(-n5c(F)c(Cl)c(N)c(Cl)c5=O)ccnc4n3C)CC2)cc1 [Example 1d17, 4-[1-[[4-(4-Amino-3,5-dichloro-2-fluoro-6-oxo-1-pyridyl)-1-methyl-pyrrolo[2,3-b]pyridin-2-yl]methyl]-4-piperidyl]-N,N-methyl-benzamide]
9 | 0.0697 | [2H]C([2H])([2H])N(C(=O)c1ccc(C2CCN(Cc3cc4c(-n5ccc(NC)cc5=O)ccnc4n3C)CC2)c(C)c1)C([2H])([2H])[2H] [Example 1d26, 3-Methyl-4-[1-[[1-methyl-4-[4-(methylamino)-2-oxo-1-pyridyl]pyrrolo[2,3-b]pyridin-2-yl]methyl]-4-piperidyl]-N,N-bis(trideuteriomethyl)benzamide]
10 | 0.0764 | CN(C)C(=O)c1ccc(C2CCN(Cc3cc4c(-n5ccc(N)c(C6CC6)c5=O)ccnc4n3C)CC2)cc1 [Example 1d28, 4-[1-[[4-(4-Amino-3-cyclo-propyl-2-oxo-1-pyridyl)-1-methyl-pyrrolo[2,3-b]pyridin-2-yl]methyl]-4-piperidyl]-N,N-dimethyl-benzamide]
11 | 0.333 | CN(C)C(=O)c1ccc(C2CC[N+]([O-])(Cc3cc4c(-n5ccc(N)cc5=O)ccnc4n3C)CC2)cc1 (stereo not shown) [Example 1d32, 4-[1-[[4-(4-Amino-2-oxo-1-pyridyl)-1-methyl-pyrrolo[2,3-b]pyridin-2-yl]methyl]-1-oxido-piperidin-1-ium-4-yl]-N,N-dimethyl-benzamide]
12 | 0.0751 | CN(C)C(=O)c1ccc(C2CC[N+]([O-])(Cc3cc4c(-n5ccc6c(c5=O)CCN6)ccnc4n3C)CC2)cc1 (stereo not shown) [Example 1d33, N,N-Dimethyl-4-[1-[[1-methyl-4-(4-oxo-2,3-dihydro-1H-pyrrolo[3,2-c]pyridin-5-yl)pyrrolo[2,3-b]pyridin-2-yl]methyl]-1-oxido-piperidin-1-ium-4-yl]benzamide]
13 | 0.0251 | CN(C)C(=O)c1ccc(C2CCN(Cc3cc4c(-n5ccc6c(c5=O)CCCN6)ccnc4n3C)CC2)cc1 [Example 1d35, N,N-Dimethyl-4-[1-[[1-methyl-4-(5-oxo-1,2,3,4-tetrahydro-1,6-naphthyridin-6-yl)pyrrolo[2,3-b]pyridin-2-yl]methyl]-4-piperidyl]benzamide]
14 | 0.57 | CNc1ccn(-c2ccnc3c2cc(CN2CCC(c4ccc(C(=O)N(C)C)cc4C(F)(F)F)CC2)n3C)c(=O)c1 [Example 1d38, N,N-Dimethyl-4-[1-[[1-methyl-4-[4-(methylamino)-2-oxo-1-pyridyl]pyrrolo[2,3-b]pyridin-2-yl]methyl]-4-piperidyl]-3-(trifluoromethyl)benzamide]
15 | 0.156 | CNc1ccn(-c2ccnc3c2cc(CN2CCC(F)(c4ccc(C(=O)N(C)C)cc4)CC2)n3C)c(=O)c1 [Example 1f5, 4-[4-Fluoro-1-[[1-methyl-4-[4-(methylamino)-2-oxo-1-pyridyl]pyrrolo-[2,3-b]pyridin-2-yl]methyl]-4-piperidyl]-N,N-dimethyl-benzamide]
16 | 0.0586 | CNc1ccn(-c2ccnc3c2cc(CN2CCN(c4ccc(C(=O)N(C)C)cc4)C[C@@H]2C)n3C)c(=O)c1 [Example 1m1, (S)—N,N-dimethyl-4-(3-methyl-4-((1-methyl-4-(4-(methylamino)-2-oxopyridin-1 (2H)-yl)-1H-pyrrolo[2,3-b]pyridin-2-yl)methyl)piperazin-1-yl)benzamide]
17 | 0.188 | CNc1ccn(-c2ccnc3c2cc(CN2CCN(c4ccc(C(=O)N(C)C)cc4)C[C@H]2C)n3C)c(=O)c1 [Example 1m2, (R)—N,N-Dimethyl-4-(3-methyl-4-((1-methyl-4-(4-(methylamino)-2-oxopyridin-1 (2H)-yl)-1H-pyrrolo[2,3-b]pyridin-2-yl)methyl)piperazin-1-yl)benzamide]
18 | 0.244 | CNc1ccn(-c2ccnc3c2cc(CN2CCN(c4ccc(C(=O)N(C)C)cc4)CC2)n3C)c(=O)c1 [Example 1m3, N,N-Dimethyl-4-(4-((1-methyl-4-(4-(methylamino)-2-oxopyridin-1 (2H)-yl)-1H-pyrrolo[2,3-b]pyridin-2-yl)methyl)piperazin-1-yl)benzamide]
19 | 0.735 | CNc1ccn(-c2ccnc3c2cc(CN2CCN(c4ccc(C(=O)N(C)C)cn4)CC2)n3C)c(=O)c1 [Example 1m7, N,N-Dimethyl-6-(4-((1-methyl-4-(4-(methylamino)-2-oxopyridin-1 (2H)-yl)-1H-pyrrolo[2,3-b]pyridin-2-yl)methyl)piperazin-1-yl)nicotinamide]
20 | 0.64 | [2H]C([2H])([2H])N(C(=O)c1ccc(N2CCN(Cc3cc4c(-n5ccc(NC)cc5=O)ccnc4n3C)CC2)nc1)C([2H])([2H])[2H] [Example 1m8, N,N-Bis(methyl-d3)-6-(4-((1-methyl-4-(4-(methylamino)-2-oxopyridin-1 (2H)-yl)-1H-pyrrolo[2,3-b]pyridin-2-yl)methyl)piperazin-1-yl)nicotinamide]
21 | 0.113 | CNc1ccn(-c2ccnc3c2cc(CN2CCC(c4ccc(C(=O)N(C)C)cn4)CC2)n3C)c(=O)c1 [Example 1m11, N,N-Dimethyl-6-(1-((1-methyl-4-(4-(methylamino)-2-oxopyridin-1 (2H)-yl)-1H-pyrrolo[2,3-b]pyridin-2-yl)methyl)piperidin-4-yl)nicotinamide]
22 | 0.167 | CNc1ccn(-c2ccnc3c2cc(CN2CC=C(c4ccc(C(=O)N(C)C)cn4)CC2)n3C)c(=O)c1 [Example 1m13, N,N-Dimethyl-1′-((1-methyl-4-(4-(methylamino)-2-oxopyridin-1 (2H)-yl)-1H-pyrrolo[2,3-b]pyridin-2-yl)methyl)-1′, 2′, 3′, 6′-tetrahydro-[2,4′-bipyridine]-5-carboxamide]
23 | 0.0603 | CNc1ccn(-c2ccnc3c2cc(CN2CC=C(c4ncc(C(=O)N(C)C)cc4C)CC2)n3C)c(=O)c1 [Example 1m14, N,N,3-Trimethyl-1′-((1-methyl-4-(4-(methylamino)-2-oxopyridin-1 (2H)-yl)-1H-pyrrolo[2,3-b]pyridin-2-yl)methyl)-1′, 2′, 3′, 6′-tetrahydro-[2,4′-bipyridine]-5-carboxamide]
24 | 0.572 | CNc1ccn(-c2ccnc3c2cc(CN2CCC(c4ncc(C(=O)N(C)C)cc4C)CC2)n3C)c(=O)c1 [Example 1m15, N,N,5-Trimethyl-6-(1-((1-methyl-4-(4-(methylamino)-2-oxopyridin-1 (2H)-yl)-1H-pyrrolo[2,3-b]pyridin-2-yl)methyl)piperidin-4-yl)nicotinamide]
25 | 0.0164 | CNc1ccn(-c2ccnc3c2cc(C(C)N2CCC(c4ccc(C(=O)N(C)C)cc4)CC2)n3C)c(=O)c1 (stereo not shown) [Example 1m71, N,N-dimethyl-4-(1-(1-(1-methyl-4-(4-(methylamino)-2-oxopyridin-1 (2H)-yl)-1H-pyrrolo[2,3-b]pyridin-2-yl)ethyl)piperidin-4-yl)benzamide]
